Tested on: SARS-CoV-2 variant D614G
Type: cell-based

Substance: ACE2-Fc
- inhibition of infection by SARS-CoV-2 variant D614G: inhibited infection
